From PubChem BioAssay (NCI)
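1) Cells in 96-well plates. 2) Compound, 48 h, 5 concentrations. 3) Linear interpolation between surrounding doses. 4) Unreached endpoint = highest concentration. TGI is the concentration that stops growth completely.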

Tests used:
Assay in all cases: growth of human tumour cells (NCI), 48 h
HL-60(TB) leukemia = system: HL-60(TB) leukemia
HCT-15 colon = system: HCT-15 colon
MCF7 breast = system: MCF7 breast
UO-31 renal = system: UO-31 renal
MALME-3M melanoma = system: MALME-3M melanoma
HOP-62 NSCLC = system: HOP-62 NSCLC
NCI-H460 lung = system: NCI-H460 lung
OVCAR-4 ovarian = system: OVCAR-4 ovarian
U251 CNS = system: U251 CNS
RXF 393 renal = system: RXF 393 renal
NCI-H522 lung = system: NCI-H522 lung
A549 NSCLC = system: A549 NSCLC
UACC-62 melanoma = system: UACC-62 melanoma
SF-539 CNS = system: SF-539 CNS
M14 melanoma = system: M14 melanoma
786-0 renal = system: 786-0 renal
OVCAR-3 ovarian = system: OVCAR-3 ovarian
HT29 colon = system: HT29 colon
MOLT-4 leukemia = system: MOLT-4 leukemia
TK-10 renal = system: TK-10 renal
SK-MEL-28 melanoma = system: SK-MEL-28 melanoma
UACC-257 melanoma = system: UACC-257 melanoma
SK-MEL-5 melanoma = system: SK-MEL-5 melanoma
EKVX NSCLC = system: EKVX NSCLC
HOP-92 NSCLC = system: HOP-92 NSCLC
OVCAR-5 ovarian = system: OVCAR-5 ovarian
CAKI-1 renal = system: CAKI-1 renal
SF-268 CNS = system: SF-268 CNS
BT-549 breast = system: BT-549 breast
COLO 205 colon = system: COLO 205 colon
K-562 leukemia = system: K-562 leukemia
OVCAR-8 ovarian = system: OVCAR-8 ovarian
SNB-75 CNS = system: SNB-75 CNS
HS 578T breast = system: HS 578T breast
SF-295 CNS = system: SF-295 CNS
IGROV1 ovarian = system: IGROV1 ovarian
LOX IMVI melanoma = system: LOX IMVI melanoma
HCT-116 colon = system: HCT-116 colon
PC-3 prostate = system: PC-3 prostate
KM12 colon = system: KM12 colon
ACHN renal = system: ACHN renal
NCI-H23 lung = system: NCI-H23 lung
SK-MEL-2 melanoma = system: SK-MEL-2 melanoma
T-47D breast = system: T-47D breast
NCI/ADR-RES ovarian = system: NCI/ADR-RES ovarian
MDA-MB-231 breast = system: MDA-MB-231 breast
SK-OV-3 ovarian = system: SK-OV-3 ovarian
SN12C renal = system: SN12C renal
SR leukemia = system: SR leukemia
DU-145 prostate = system: DU-145 prostate
MDA-MB-435 = system: MDA-MB-435
SNB-19 CNS = system: SNB-19 CNS
SW-620 colon = system: SW-620 colon

Measured: TGI

O=C(CSc1nccc(=O)[nH]1)c1ccccc1
> 100 µM: HL-60(TB) leukemia | HCT-15 colon | MCF7 breast | UO-31 renal | MALME-3M melanoma | HOP-62 NSCLC | NCI-H460 lung | OVCAR-4 ovarian | U251 CNS | RXF 393 renal | NCI-H522 lung | A549 NSCLC | UACC-62 melanoma | SF-539 CNS | M14 melanoma | 786-0 renal | OVCAR-3 ovarian | HT29 colon | MOLT-4 leukemia | TK-10 renal | SK-MEL-28 melanoma | UACC-257 melanoma | SK-MEL-5 melanoma | EKVX NSCLC | HOP-92 NSCLC | OVCAR-5 ovarian | CAKI-1 renal | SF-268 CNS | BT-549 breast | COLO 205 colon | K-562 leukemia | OVCAR-8 ovarian | SNB-75 CNS | HS 578T breast | SF-295 CNS | IGROV1 ovarian | LOX IMVI melanoma | HCT-116 colon | PC-3 prostate | KM12 colon | ACHN renal | NCI-H23 lung | SK-MEL-2 melanoma | T-47D breast | NCI/ADR-RES ovarian | MDA-MB-231 breast | SK-OV-3 ovarian | SN12C renal | SR leukemia | DU-145 prostate | MDA-MB-435 | SNB-19 CNS | SW-620 colon
